Bounds are passed on as bounds.

Test [1] concerns the target T1, human Nav1.7 (Homo sapiens, UniProt Q15858).
T1 construct: expressed in transfected cells
Briefly: PatchXpress sodium current measurement, inactivated state block, Nav1.7. The format is cell-based. The settings on record: channels stably expressed in HEK 293 cells, double-pulse protocol, 22° C., read-out: potency for the Nav 1.7 sodium ion channel (1.7=). As for the experimental part:
(§1) Cell Based Assays for Nav 1.7 and Nav 1.5 Activity
(§2) Compounds were tested on human Nav1.7 and Nav1.5 channels stably expressed in HEK 293 cells.
(§3) Sodium Current Measurements on the PatchXpress 7000:
(§4) To measure inactivated state block of sodium channels, test compounds were characterized in an automated PatchXpress® assay (Molecular Devices) using a double-pulse protocol on human Nav1.7 and Nav1.5 channels stably expressed in HEK 293 cells. Cells were held at a potential 20 mV negative to the potential at which ˜50% of the channels are inactivated. A 8000 ms pre-pulse 7 mV positive to the potential at which ˜50% of the channels are inactivated was given followed by a hyperpolarizing 2 ms pulse to −120 mV and a 20 ms test pulse to −20 mV. The protocol was applied to cells in the absence, presence of compound and after washout. The temperature of PatchXpress® instruments was maintained at 22° C. The following recording solutions were used. Internal solution (mM): 30 CsCl, 5 HEPES, 10 EGTA, 120 CsF, 5 NaF, 2 MgCl2, pH 7.3 with CsOH. External solution (mM): 120 NMDG, 40 NaCl, 1 KCl, 0.5 MgCl2, 5 HEPES, 2.7 CaCl2, pH 7.5 with NMDG-OH. Estimated IC50 values were calculated based on at least two compound concentrations tested. For all electrophysiology experiments, offline analysis was used to correct for current rundown and to determine percent inhibition as a function of drug concentration. IC50 values were determined by fitting to the Hill equation.

Test [2] concerns the target T2, human Nav1.5 (Homo sapiens, UniProt Q14524).
T2 construct: expressed in transfected cells
Description: PatchXpress sodium current measurement, inactivated state block, Nav1.5. The format is cell-based. To be noted: determined by PatchXpress measurement, HEK 293 cells. As for the experimental part:
as §1, §2, §3, §4

T1 sequence (Q15858 whole entry): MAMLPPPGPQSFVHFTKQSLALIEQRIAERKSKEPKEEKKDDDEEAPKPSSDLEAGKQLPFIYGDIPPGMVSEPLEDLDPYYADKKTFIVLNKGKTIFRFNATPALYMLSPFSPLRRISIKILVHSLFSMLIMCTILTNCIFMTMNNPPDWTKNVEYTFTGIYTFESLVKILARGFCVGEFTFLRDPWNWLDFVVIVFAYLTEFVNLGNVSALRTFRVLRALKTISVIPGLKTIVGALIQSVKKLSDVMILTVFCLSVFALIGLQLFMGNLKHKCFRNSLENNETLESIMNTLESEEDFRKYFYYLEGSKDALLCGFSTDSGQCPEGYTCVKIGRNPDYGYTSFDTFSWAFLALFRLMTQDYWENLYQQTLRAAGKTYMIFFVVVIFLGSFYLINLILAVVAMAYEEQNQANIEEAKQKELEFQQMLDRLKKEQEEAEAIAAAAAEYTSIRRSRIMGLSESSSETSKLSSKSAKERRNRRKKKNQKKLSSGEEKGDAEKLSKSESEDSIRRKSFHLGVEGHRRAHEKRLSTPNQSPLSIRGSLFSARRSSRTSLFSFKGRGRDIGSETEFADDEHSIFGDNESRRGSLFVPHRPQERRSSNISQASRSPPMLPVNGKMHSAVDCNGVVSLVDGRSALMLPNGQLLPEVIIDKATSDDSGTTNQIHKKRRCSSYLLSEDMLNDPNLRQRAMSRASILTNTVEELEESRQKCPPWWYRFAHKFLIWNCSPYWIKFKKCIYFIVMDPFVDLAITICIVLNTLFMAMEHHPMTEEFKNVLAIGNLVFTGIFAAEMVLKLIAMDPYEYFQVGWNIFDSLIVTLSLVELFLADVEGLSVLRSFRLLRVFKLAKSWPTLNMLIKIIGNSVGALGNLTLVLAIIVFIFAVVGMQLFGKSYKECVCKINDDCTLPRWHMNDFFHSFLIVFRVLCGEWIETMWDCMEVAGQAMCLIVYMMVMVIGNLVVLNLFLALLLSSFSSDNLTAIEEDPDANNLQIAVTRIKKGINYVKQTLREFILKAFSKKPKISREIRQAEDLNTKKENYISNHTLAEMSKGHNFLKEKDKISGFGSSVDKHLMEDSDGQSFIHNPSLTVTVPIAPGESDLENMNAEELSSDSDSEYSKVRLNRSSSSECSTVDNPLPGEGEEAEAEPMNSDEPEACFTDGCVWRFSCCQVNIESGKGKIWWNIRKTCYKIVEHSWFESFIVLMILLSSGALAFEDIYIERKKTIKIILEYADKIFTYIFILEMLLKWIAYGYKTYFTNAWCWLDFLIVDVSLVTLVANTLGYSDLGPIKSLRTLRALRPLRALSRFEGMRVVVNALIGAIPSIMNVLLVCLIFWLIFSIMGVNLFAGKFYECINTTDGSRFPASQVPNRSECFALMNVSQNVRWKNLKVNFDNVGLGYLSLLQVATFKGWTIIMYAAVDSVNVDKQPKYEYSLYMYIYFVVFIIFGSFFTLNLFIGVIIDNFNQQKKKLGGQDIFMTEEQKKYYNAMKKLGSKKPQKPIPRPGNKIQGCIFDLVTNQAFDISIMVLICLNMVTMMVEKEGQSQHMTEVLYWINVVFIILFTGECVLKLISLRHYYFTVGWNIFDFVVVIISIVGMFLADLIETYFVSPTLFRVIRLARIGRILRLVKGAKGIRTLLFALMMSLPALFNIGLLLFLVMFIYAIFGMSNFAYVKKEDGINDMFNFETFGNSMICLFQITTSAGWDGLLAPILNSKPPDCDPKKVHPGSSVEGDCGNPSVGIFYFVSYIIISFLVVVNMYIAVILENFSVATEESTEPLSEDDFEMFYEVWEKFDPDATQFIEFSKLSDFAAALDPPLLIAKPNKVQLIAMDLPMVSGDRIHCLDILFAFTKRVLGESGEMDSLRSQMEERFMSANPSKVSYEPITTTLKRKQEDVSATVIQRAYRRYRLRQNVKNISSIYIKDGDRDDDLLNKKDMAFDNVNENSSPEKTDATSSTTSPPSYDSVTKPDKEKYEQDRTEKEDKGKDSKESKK
T2 sequence (Q14524 whole entry): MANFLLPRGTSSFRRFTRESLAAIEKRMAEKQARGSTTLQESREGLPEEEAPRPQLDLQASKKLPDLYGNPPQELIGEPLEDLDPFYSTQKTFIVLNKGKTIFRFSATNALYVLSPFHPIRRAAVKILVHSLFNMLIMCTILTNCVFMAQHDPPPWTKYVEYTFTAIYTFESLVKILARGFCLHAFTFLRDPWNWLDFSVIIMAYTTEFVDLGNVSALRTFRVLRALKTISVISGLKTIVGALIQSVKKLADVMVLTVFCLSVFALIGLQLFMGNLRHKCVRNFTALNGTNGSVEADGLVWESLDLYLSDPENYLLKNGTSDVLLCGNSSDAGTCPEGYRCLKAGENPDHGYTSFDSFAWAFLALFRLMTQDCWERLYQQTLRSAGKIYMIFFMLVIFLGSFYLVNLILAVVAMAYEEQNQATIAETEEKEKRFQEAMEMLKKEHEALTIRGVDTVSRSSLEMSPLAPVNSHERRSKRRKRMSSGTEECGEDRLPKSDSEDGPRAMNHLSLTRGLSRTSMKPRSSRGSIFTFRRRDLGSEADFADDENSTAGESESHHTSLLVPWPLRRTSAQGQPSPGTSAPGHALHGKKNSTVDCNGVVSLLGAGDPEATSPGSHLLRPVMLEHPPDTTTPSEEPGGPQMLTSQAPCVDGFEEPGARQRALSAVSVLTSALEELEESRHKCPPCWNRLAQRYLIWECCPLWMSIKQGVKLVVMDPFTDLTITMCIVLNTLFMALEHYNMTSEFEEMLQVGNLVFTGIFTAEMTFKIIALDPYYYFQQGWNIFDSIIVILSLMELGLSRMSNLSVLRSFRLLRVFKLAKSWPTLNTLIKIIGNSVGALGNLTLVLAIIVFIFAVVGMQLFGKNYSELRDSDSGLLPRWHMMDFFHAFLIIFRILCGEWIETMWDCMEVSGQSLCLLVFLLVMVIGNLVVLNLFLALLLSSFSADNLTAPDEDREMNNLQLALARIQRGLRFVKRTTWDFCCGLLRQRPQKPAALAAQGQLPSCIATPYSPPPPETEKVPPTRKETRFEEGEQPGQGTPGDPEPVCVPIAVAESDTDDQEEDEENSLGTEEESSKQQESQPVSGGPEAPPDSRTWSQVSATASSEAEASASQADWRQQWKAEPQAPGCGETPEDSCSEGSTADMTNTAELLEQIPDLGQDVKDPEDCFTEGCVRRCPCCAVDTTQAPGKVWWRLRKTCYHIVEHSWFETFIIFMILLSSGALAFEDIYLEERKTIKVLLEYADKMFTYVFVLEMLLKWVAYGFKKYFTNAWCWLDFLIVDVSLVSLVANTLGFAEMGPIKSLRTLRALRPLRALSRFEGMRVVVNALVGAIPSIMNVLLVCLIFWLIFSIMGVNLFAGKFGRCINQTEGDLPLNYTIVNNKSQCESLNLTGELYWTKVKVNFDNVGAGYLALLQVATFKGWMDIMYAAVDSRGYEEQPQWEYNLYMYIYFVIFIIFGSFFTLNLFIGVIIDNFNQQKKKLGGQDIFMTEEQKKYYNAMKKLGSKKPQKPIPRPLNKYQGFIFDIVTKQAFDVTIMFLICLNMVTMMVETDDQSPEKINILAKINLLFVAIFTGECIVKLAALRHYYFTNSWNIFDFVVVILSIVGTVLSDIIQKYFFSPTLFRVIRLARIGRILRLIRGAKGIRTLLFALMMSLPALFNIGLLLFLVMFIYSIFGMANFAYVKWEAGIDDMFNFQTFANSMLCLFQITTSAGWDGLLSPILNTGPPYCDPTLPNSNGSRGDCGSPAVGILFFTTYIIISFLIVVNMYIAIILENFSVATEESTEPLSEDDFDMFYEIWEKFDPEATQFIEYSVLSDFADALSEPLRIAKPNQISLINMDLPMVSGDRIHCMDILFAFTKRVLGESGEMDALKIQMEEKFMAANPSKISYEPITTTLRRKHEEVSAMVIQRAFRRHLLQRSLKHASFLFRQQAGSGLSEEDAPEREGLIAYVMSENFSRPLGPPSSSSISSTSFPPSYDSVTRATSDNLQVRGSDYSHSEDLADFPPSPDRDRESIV

For the compound `C[C@H](c1ccccc1C#CCN)n1c(=O)oc2cc(S(=O)(=O)Nc3cccc(F)n3)c(F)cc21` [Ex8-1, (R)-3-(1-(2-(3-Aminoprop-1-yn-1-yl)phenyl)ethyl)-5-fluoro-N-(6-fluoropyridin-2-yl)-2-oxo-2,3-dihydrobenzo[d]oxazole-6-sulfonamide], the IC50 in test [1] was determined as 50 nM. In addition, the “ratio of Nav 1.5:Nav 1.7 potency” value in test [2] was 546.
On the same counts, the results for `C[C@H](c1ccccc1C#CCN1CCCC1)n1c(=O)oc2cc(S(=O)(=O)Nc3cccc(F)n3)c(F)cc21` [Ex8-2, 5-fluoro-N-(6-fluoropyridin-2-yl)-2-oxo-3-{(1R)-1-[2-(3-pyrrolidin-1-ylprop-1-yn-1-yl)phenyl]ethyl}-2,3-dihydro-1,3-benzoxazole-6-sulfonamide] are 434 nM and 23.
As to `C[C@H](c1ccccc1C#C[C@H]1CCCC[C@H]1N)n1c(=O)oc2cc(S(=O)(=O)Nc3cccc(F)n3)c(F)cc21` [Ex8-3, 3-[(1R)-1-(2-{[(1R,2R)-2-aminocyclohexyl]ethynyl}phenyl)ethyl]-5-fluoro-N-(6-fluoropyridin-2-yl)-2-oxo-2,3-dihydro-1,3-benzoxazole-6-sulfonamide], in test [1], the IC50 was found to be 14 nM. For the same compound, the “ratio of Nav 1.5:Nav 1.7 potency” value in test [2] is 2000.
On the same counts, the results for `C[C@H](c1ccccc1C#CC(N)CO)n1c(=O)oc2cc(S(=O)(=O)Nc3cccc(F)n3)c(F)cc21` (stereo partly drawn) [Ex8-4, 3-{(1R)-1-[2-(3-amino-4-hydroxybut-1-yn-1-yl)phenyl]ethyl}-5-fluoro-N-(6-fluoropyridin-2-yl)-2-oxo-2,3-dihydro-1,3-benzoxazole-6-sulfonamide] are 9 nM and 822.
Consider `C[C@H](c1ccccc1C#CC1(N)CCCCC1)n1c(=O)oc2cc(S(=O)(=O)Nc3cccc(F)n3)c(F)cc21` [Ex8-6, 3-[(1R)-1-{2-[(1-aminocyclohexyl)ethynyl]phenyl}ethyl]-5-fluoro-N-(6-fluoropyridin-2-yl)-2-oxo-2,3-dihydro-1,3-benzoxazole-6-sulfonamide], for which the IC50 in test [1] was found to be 49 nM. Moreover, in test [2], the “ratio of Nav 1.5:Nav 1.7 potency” value was 95.
Turning to `C[C@H](c1ccccc1C#CCC(C)(C)N)n1c(=O)oc2cc(S(=O)(=O)Nc3cccc(F)n3)c(F)cc21` [Ex8-7, 3-{(1R)-1-[2-(4-amino-4-methylpent-1-yn-1-yl)phenyl]ethyl}-5-fluoro-N-(6-fluoropyridin-2-yl)-2-oxo-2,3-dihydro-1,3-benzoxazole-6-sulfonamide], the IC50 in test [1] worked out at 108 nM. Also, the “ratio of Nav 1.5:Nav 1.7 potency” value in test [2] was over 131.
Take `C[C@H](c1ccccc1C#CCN1CCC(O)C1)n1c(=O)oc2cc(S(=O)(=O)Nc3cccc(F)n3)c(F)cc21` (stereo partly drawn) [Ex8-8, 5-fluoro-N-(6-fluoropyridin-2-yl)-3-[(1R)-1-{2-[3-(3-hydroxypyrrolidin-1-yl)prop-1-yn-1-yl]phenyl}ethyl]-2-oxo-2,3-dihydro-1,3-benzoxazole-6-sulfonamide]: the IC50 in test [1] stood at 299 nM. In test [2], the “ratio of Nav 1.5:Nav 1.7 potency” value turned out to be 75.
Take `C[C@H](c1ccccc1C#CCN(C)C)n1c(=O)oc2cc(S(=O)(=O)Nc3cccc(F)n3)c(F)cc21` [Ex8-9, 3-[(1R)-1-{2-[3-(dimethylamino)prop-1-yn-1-yl]phenyl}ethyl]-5-fluoro-N-(6-fluoropyridin-2-yl)-2-oxo-2,3-dihydro-1,3-benzoxazole-6-sulfonamide]: in test [1], the IC50 was 273 nM. Besides, the “ratio of Nav 1.5:Nav 1.7 potency” value in test [2] was determined as 99.
For `C[C@H](c1ccccc1C#CCN1CCC1)n1c(=O)oc2cc(S(=O)(=O)Nc3cccc(F)n3)c(F)cc21` [Ex8-10, 3-{(1R)-1-[2-(3-azetidin-1-ylprop-1-yn-1-yl)phenyl]ethyl}-5-fluoro-N-(6-fluoropyridin-2-yl)-2-oxo-2,3-dihydro-1,3-benzoxazole-6-sulfonamide], the IC50 in test [1] came out at 236 nM. Also, in test [2], the “ratio of Nav 1.5:Nav 1.7 potency” value is given as 127.

(Values after patent US9624208B2, “Benzoxazolinone compounds with selective activity in voltage-gated sodium channels” (Merck Sharp & Dohme Corp., priority 2012, dated 2017).)
